Converted amounts (≈) assume the structure as drawn. Where a name gives a salt, the structure may show the parent alone. Read-outs that look alike come from different tables or passages of the source.
What was measured:
[1] = tested on: S. aureus ATCC 106414 (VISA); assay: MIC microdilution (Table I-1); assay type: cell-based, Staphylococcus aureus; conditions: read after 18 hours
Procedure: (§1) The microdilution method recommended by the Clinical and Laboratory Standard Institute [M07-A8, Vol. 29, N^o 2] was used. The activity of indolic compounds was tested against 29 bacterial strains belonging to 17 different species and 12 different genera (Staphylococcus, Streptococcus, Enterococcus, Listeria, Bacillus, Haemophilus, Escherichia, Klebsiella, Enterobacter, Serratia, Pseudomonas, and Acinetobacter). Bacterial inocula were prepared in Mueller Hinton broth (MH2, bioMerieux, Marcy L'Etoile, France), supplemented with 10% sheep blood for fastidious species (i.e., Streptococcus pneumoniae and Haemophilus influenzae). They were dispensed in 96 well microtiter plates (5×10^5 CFU/ml of final inoculum). Indolic compounds were added to the wells as to obtain two-fold serial concentrations (0.50-128 mg/L of final concentrations). Plates were incubated at 37° C. in ambient air, or at 37° C. in 5% CO2 enriched atmosphere for fastidious species. […] Drug-free cultures served as growth controls. Cultures receiving gentamicin, ciprofloxacin or cefotaxime served as positive controls.

S. aureus ATCC 29213 = assay: MIC microdilution (Table I-1); assay type: cell-based, Staphylococcus aureus
Procedure: as §1

[2] = tested on: S. aureus ATCC 33592 (MRSA); assay: MIC microdilution (Table I-1); assay type: cell-based, Staphylococcus aureus; conditions: read after 18 hours
Procedure: as §1

S. aureus ATCC 6538 = assay: MIC microdilution (Table I-1); assay type: cell-based, Staphylococcus aureus
Procedure: as §1

S. aureus ATCC 9144 = assay: MIC microdilution (Table I-1); assay type: cell-based, Staphylococcus aureus
Procedure: as §1

S. aureus CIP 103428 = assay: MIC microdilution (Table I-1); assay type: cell-based, Staphylococcus aureus
Procedure: as §1

[3] = tested on: S. aureus CIP 65.25 (MRSA); assay: MIC microdilution (Table I-1); assay type: cell-based, Staphylococcus aureus; conditions: read after 18 hours
Procedure: as §1

S. aureus CIP 65.6 = assay: MIC microdilution (Table I-1); assay type: cell-based, Staphylococcus aureus
Procedure: as §1

S. aureus SA-1199B = assay: MIC microdilution (Table I-1); assay type: cell-based, Staphylococcus aureus
Procedure: as §1

[4] = tested on: S. epidermidis ATCC 12228; assay: MIC microdilution (Table I-1); assay type: cell-based, Staphylococcus epidermidis
Procedure: as §1

[5] = tested on: S. epidermidis CIP 103627; assay: MIC microdilution (Table I-1); assay type: cell-based, Staphylococcus epidermidis
Procedure: as §1

S. epidermidis CIP 81.55 = assay: MIC microdilution (Table I-1); assay type: cell-based, Staphylococcus epidermidis
Procedure: as §1

[6] = tested on: Bacillus subtilis CIP 5262; assay: MIC microdilution (Table I-1); assay type: cell-based
Procedure: as §1

E. faecalis ATCC 29212 = assay: MIC microdilution (Table I-1); assay type: cell-based
Procedure: as §1

E. faecium CIP 54.32 = assay: MIC microdilution (Table I-1); assay type: cell-based
Procedure: as §1

[7] = tested on: Klebsiella pneumoniae ATCC 35657; assay: MIC microdilution (Table I-1); assay type: cell-based
Procedure: as §1

[8] = tested on: Listeria innocua CIP 80.11; assay: MIC microdilution (Table I-1); assay type: cell-based
Procedure: as §1

[9] = tested on: S. agalactiae (group B) ATCC 12400; assay: MIC microdilution (Table I-1); assay type: cell-based
Procedure: as §1

S. mitis CIP 103335 = assay: MIC microdilution (Table I-1); assay type: cell-based
Procedure: as §1

[10] = tested on: S. pyogenes (group A) CIP 104226; assay: MIC microdilution (Table I-1); assay type: cell-based
Procedure: as §1

S. pneumoniae ATCC 6303 = assay: MIC microdilution (Table I-1); assay type: cell-based, Streptococcus pneumoniae
Procedure: as §1

[11] = tested on: 29 bacterial strains belonging to 17 different species; assay: Intrinsic antibacterial activity, MIC on the bacterial panel; assay type: cell-based; conditions: result in words
Procedure: as §1

[12] = tested on: Acinetobacter baumanii ATCC 19606; assay: MIC microdilution (Table I-1); assay type: cell-based; conditions: Acinetobacter baumannii, ATCC19606, read after 18 hours
Procedure: as §1

[13] = tested on: Enterobacter cloacae ATCC 13047; assay: MIC microdilution (Table I-1); assay type: cell-based; conditions: ATCC13047, read after 18 hours
Procedure: as §1

[14] = tested on: Escherichia coli ATCC 25922; assay: MIC microdilution (Table I-1); assay type: cell-based; conditions: ATCC25922, read after 18 hours
Procedure: as §1

[15] = tested on: Haemophilus influenzae ATCC 49766; assay: MIC microdilution (Table I-1); assay type: cell-based; conditions: ATCC49766; Haemophilus influenzae ATCC 49766; read after 18 hours; read-out: MIC
Procedure: as §1

[16] = tested on: Pseudomonas aeruginosa CIP 5933; assay: MIC microdilution (Table I-1); assay type: cell-based; conditions: CIP5933, read after 18 hours
Procedure: as §1

S. aureus ATCC 25923 = assay: MIC microdilution (Table I-1); assay type: cell-based; conditions: Staphylococcus aureus, ATCC25923, read after 18 hours
Procedure: as §1

S. pneumoniae ATCC 49619 = assay: MIC microdilution (Table I-1); assay type: cell-based; conditions: Streptococcus pneumoniae, ATCC49619, read after 18 hours
Procedure: as §1

[17] = tested on: Serratia marcescens CIP 103551; assay: MIC microdilution (Table I-1); assay type: cell-based; conditions: CIP103551, read after 18 hours
Procedure: as §1

[18] = tested on: HCT116 (human colon tumor); assay: In vitro cytotoxicity; assay type: cell-based
Procedure: (§2) In vitro cytotoxicity was assayed on three cell lines—KB (human mouth carcinoma), MCR5 (human lung fibroblast) and HCT116 (human colon tumor). Results are presented in table III as % of cellular growth inhibition in presence of 10^−5 M and 10^−6 M of the tested bis-indolic derivatives.

[19] = tested on: KB (human mouth carcinoma); assay: In vitro cytotoxicity; assay type: cell-based
Procedure: as §2

[20] = tested on: MRC5 (human lung fibroblast); assay: In vitro cytotoxicity; assay type: cell-based
Procedure: as §2

[21] = Staphylococcus aureus, read-out: MIC
[22] = HCT-116, read-out: % of cellular growth inhibition
[23] = read-out: % of cellular growth inhibition
[24] = MRC5, read-out: % of cellular growth inhibition

tert-Butyl(2-(4-bromo)benzamido-2-(5-bromo-1H-indol-3-yl)ethyl)carbamate [Compound 12a]
MIC [1]: >32 µg/mL | MIC (S. aureus ATCC 29213; read after 18 hours): >32 µg/mL | MIC [2]: >32 µg/mL | MIC (S. aureus ATCC 6538; read after 18 hours): >32 µg/mL | MIC (S. aureus ATCC 9144; read after 18 hours): >32 µg/mL | MIC (S. aureus CIP 103428; read after 18 hours): >32 µg/mL | MIC [3]: >32 µg/mL | MIC (S. aureus CIP 65.6; read after 18 hours): >32 µg/mL | MIC (S. aureus SA-1199B; S. aureus SA-1199B, read after 18 hours): >32 µg/mL | MIC ([4]; read after 18 hours): >32 µg/mL | MIC ([5]; read after 18 hours): >32 µg/mL | MIC (S. epidermidis CIP 81.55; read after 18 hours): >32 µg/mL | MIC ([6]; read after 18 hours): >128 µg/mL | MIC (E. faecalis ATCC 29212; read after 18 hours): >128 µg/mL | MIC (E. faecium CIP 54.32; read after 18 hours): >128 µg/mL | MIC ([7]; read after 18 hours): 64 µg/mL | MIC ([8]; read after 18 hours): >128 µg/mL | MIC ([9]; read after 18 hours): 64 µg/mL | MIC (S. mitis CIP 103335; read after 18 hours): >128 µg/mL | MIC ([10]; read after 18 hours): >128 µg/mL | MIC (S. pneumoniae ATCC 6303; read after 18 hours): 128 µg/mL | intrinsic antibacterial activity [11]: lack of intrinsic antibacterial activity

CC(C)(C)OC(=O)NCC(NC(=O)C(=O)c1c[nH]c2cc(Br)ccc12)c1c[nH]c2ccccc12 (stereo not drawn) [Compound 3, tert-Butyl(2-(2-(6-bromo-1H-indol-3-yl)-2-oxoacetamido)-2-(1H-indol-3-yl)ethyl) carbamate]
MIC [1, 21]: 4 µg/mL (≈ 7.61 µM) | MIC (S. aureus ATCC 29213; Staphylococcus aureus, ATCC29213, read after 18 hours, read-out: MIC): 2 µg/mL (≈ 3.81 µM) | MIC [2, 21]: 4 µg/mL (≈ 7.61 µM) | MIC (S. aureus ATCC 6538; Staphylococcus aureus, ATCC6538, read after 18 hours, read-out: MIC): 4 µg/mL (≈ 7.61 µM) | MIC (S. aureus ATCC 9144; Staphylococcus aureus, ATCC9144, read after 18 hours, read-out: MIC): 4 µg/mL (≈ 7.61 µM) | MIC (S. aureus CIP 103428; Staphylococcus aureus, CIP103428, read after 18 hours, read-out: MIC): 4 µg/mL (≈ 7.61 µM) | MIC [3, 21]: 4 µg/mL (≈ 7.61 µM) | MIC (S. aureus CIP 65.6; Staphylococcus aureus, CIP65, read after 18 hours, read-out: MIC): 4 µg/mL (≈ 7.61 µM) | MIC (S. aureus SA-1199B; Staphylococcus aureus, SA1199B, 18 h): 4 µg/mL (≈ 7.61 µM) | MIC ([4]; Staphylococcus epidermidis, ATCC12228, read after 18 hours, read-out: MIC): 4 µg/mL (≈ 7.61 µM) | MIC ([5]; Staphylococcus epidermidis, CIP103627, read after 18 hours, read-out: MIC): > 16 µg/mL | MIC (S. epidermidis CIP 81.55; Staphylococcus epidermidis, CIP81, read after 18 hours, read-out: MIC): 8 µg/mL (≈ 15.2 µM) | MIC [12]: > 128 µg/mL | MIC ([6]; CIP5262, read after 18 hours, read-out: MIC): 128 µg/mL (≈ 244 µM) | MIC (E. faecalis ATCC 29212; Enterococcus faecalis, ATCC29212, read after 18 hours, read-out: MIC): > 128 µg/mL | MIC (E. faecium CIP 54.32; Enterococcus faecium, CIP54, read after 18 hours, read-out: MIC): 32 µg/mL (≈ 60.9 µM) | MIC [13]: > 128 µg/mL | MIC [14]: > 128 µg/mL | MIC [15]: 32 µg/mL (≈ 60.9 µM) | MIC ([7]; ATCC35657, read after 18 hours, read-out: MIC): > 128 µg/mL | MIC ([8]; CIP80, read after 18 hours, read-out: MIC): > 128 µg/mL | MIC [16]: > 128 µg/mL | MIC ([9]; Streptococcus agalactiae, ATCC12400, read after 18 hours, read-out: MIC): 64 µg/mL (≈ 122 µM) | MIC (S. aureus ATCC 25923): 4 µg/mL (≈ 7.61 µM) | MIC (S. mitis CIP 103335; Streptococcus mitis, CIP103335, read after 18 hours, read-out: MIC): > 128 µg/mL | MIC (S. pneumoniae ATCC 49619): > 128 µg/mL | MIC ([10]; Streptococcus pyogenes, CIP104226, read after 18 hours, read-out: MIC): 128 µg/mL (≈ 244 µM) | MIC [17]: > 128 µg/mL | MIC (S. pneumoniae ATCC 6303; Streptococcus pneumoniae, ATCC6303, read after 18 hours, read-out: MIC): 64 µg/mL (≈ 122 µM) | inhibition at 10 µM ([18]; HCT-116, HCT116, 10^−5 M, read-out: % of cellular growth inhibition): 97 ± 1% | inhibition at 1 µM ([18]; HCT-116, HCT116, 10^−6 M, read-out: % of cellular growth inhibition (converted)): 0% | inhibition at 10 µM ([19]; KB, 10^−5 M, read-out: % of cellular growth inhibition): 100 ± 1% | inhibition at 1 µM ([19]; KB, 10^−6 M, read-out: % of cellular growth inhibition (converted)): 4% | inhibition at 10 µM ([20]; MRC5, 10^−5 M, read-out: % of cellular growth inhibition): 98 ± 1% | inhibition at 1 µM ([20]; MRC5, 10^−6 M, read-out: % of cellular growth inhibition (converted)): 0%

O=C(C(=O)N1CCNCC1c1c[nH]c2ccc(Br)cc12)c1c[nH]c2ccc(Br)cc12 (stereo not drawn) [Compound 7, 1-(5-bromo-1H-indol-3-yl)-2-(2-(5-bromo-1H-indol-3-yl)piperazin-1-yl)ethane-1,2-dione hydrochloride]
inhibition at 1 µM [18, 22]: 0% | inhibition at 10 µM [18, 22]: 22 ± 7% | inhibition at 1 µM [19, 23]: 0% | inhibition at 10 µM [19, 23]: 4 ± 11% | inhibition at 1 µM [20, 24]: 0% | inhibition at 10 µM [20, 24]: 0%

Reference: US9321722B2, “Bis-indolic derivatives, their uses in particular as antibacterials” (UNIVERSITE JOSEPH FOURIER, priority 2011, dated 2016)
